Laboratory results published in ChEMBL document CHEMBL1201862, “PubChem BioAssay data set” (2004).
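How tested: cells in 96-well plates exposed to compound for 48 hours at five concentrations. Abbreviation: GI50, concentration required for 50% inhibition of growth.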 Active and inactive are the calls of the source. Cut-off read from the data, not from the text of the source: active = GI50 up to about 1.1 µM and inactive = higher.

Tests used:
Test in all cases: NCI-60 cell line screen, 48 h
[1] = test system: A498
[2] = test system: A549
[3] = test system: ACHN
[4] = test system: CAKI-1
[5] = test system: CCRF-CEM
[6] = test system: COLO 205
[7] = test system: EKVX
[8] = test system: HCT-15
[9] = test system: HOP-62
[10] = test system: HOP-92
[11] = test system: MDA-MB-435
[12] = test system: Malme-3M
[13] = test system: NCI-H522
[14] = test system: OVCAR-8
[15] = test system: PC-3
[16] = test system: RXF 393
[17] = test system: SF-295
[18] = test system: SW-620
[19] = test system: UACC-257
[20] = test system: OVCAR-3

SMILES	GI50 [1]	GI50 [2]	GI50 [3]	GI50 [4]	GI50 [5]	GI50 [6]	GI50 [7]	GI50 [8]	GI50 [9]	GI50 [10]	GI50 [11]	GI50 [12]	GI50 [13]	GI50 [14]	GI50 [15]	GI50 [16]	GI50 [17]	GI50 [18]	GI50 [19]	GI50 [20]
CC#Cc1cc2c(cc1O)CC[C@@H]1[C@@H]2CC[C@]2(C)[C@@H](O)CC[C@@H]12	5.28 µM (inactive)	2.01 µM (inactive)	6.17 µM (inactive)	0.766 µM (active)	0.684 µM (active)	17.7 µM (inactive)	2.49 µM (inactive)	0.34 µM	1.29 µM (inactive)	11.8 µM (inactive)	0.134 µM (active)	0.582 µM (active)	0.289 µM (active)	2.09 µM (inactive)	3.92 µM (inactive)	2.45 µM (inactive)	0.406 µM (active)	0.655 µM (active)	1.76 µM (inactive)	
CCn1nc2c3c(ncn3C(C)(C)O2)c1=O	> 100 µM (inactive)	> 100 µM (inactive)	> 100 µM (inactive)	> 100 µM (inactive)	> 100 µM (inactive)	> 100 µM (inactive)	> 100 µM (inactive)	> 100 µM	> 100 µM (inactive)	> 100 µM (inactive)	> 100 µM (inactive)	> 100 µM (inactive)	> 100 µM (inactive)		> 100 µM (inactive)	> 100 µM (inactive)	> 100 µM (inactive)	> 100 µM (inactive)	> 100 µM (inactive)	
COC(=O)C1(C(=O)OC)N=C(C)OC1c1ccccn1 (centres undefined)	> 100 µM (inactive)	> 100 µM (inactive)	> 100 µM (inactive)	> 100 µM (inactive)	> 100 µM (inactive)	> 100 µM (inactive)	> 100 µM (inactive)	> 100 µM	> 100 µM (inactive)	> 100 µM (inactive)	> 100 µM (inactive)			> 100 µM (inactive)	> 100 µM (inactive)	> 100 µM (inactive)	> 100 µM (inactive)	> 100 µM (inactive)	> 100 µM (inactive)	> 100 µM (inactive)
CC1C[C@]2(C)C(=S)Nc3ccccc3[C@@H]2Nc2ccccc21 (some centres undefined)	21.5 µM (inactive)	19.1 µM (inactive)	19.3 µM (inactive)	25.4 µM (inactive)	17.9 µM (inactive)	14.2 µM (inactive)	22.3 µM (inactive)	21.6 µM	17.7 µM (inactive)	12.2 µM (inactive)	14.9 µM (inactive)	15.9 µM (inactive)		15.9 µM (inactive)	15.4 µM (inactive)	19 µM (inactive)	18.5 µM (inactive)	25.9 µM (inactive)	15.6 µM (inactive)	15.1 µM (inactive)
O=C(CC(Cl)=C(Cl)Cl)c1ccccc1	> 100 µM (inactive)	> 100 µM (inactive)	43.5 µM (inactive)	24.1 µM (inactive)	13.7 µM (inactive)	28.8 µM (inactive)		24.8 µM	> 100 µM (inactive)	> 100 µM (inactive)	36.3 µM (inactive)	31.8 µM (inactive)	23.9 µM (inactive)	> 100 µM (inactive)	> 100 µM (inactive)	21.2 µM (inactive)	> 100 µM (inactive)	38.3 µM (inactive)	27.4 µM (inactive)	27 µM (inactive)
C/C=C/COc1cc(NC(=S)c2ccoc2C)ccc1OC	49.3 µM (inactive)	> 100 µM (inactive)		25.6 µM (inactive)	> 100 µM (inactive)	> 100 µM (inactive)	49.8 µM (inactive)	> 100 µM	34.7 µM (inactive)	16.7 µM (inactive)	> 100 µM (inactive)	89.1 µM (inactive)	66.1 µM (inactive)	57.9 µM (inactive)	> 100 µM (inactive)	> 100 µM (inactive)	77.8 µM (inactive)	> 100 µM (inactive)	> 100 µM (inactive)	50.2 µM (inactive)
COC1=CC(=O)c2c(O)ccc(O)c2C1=O	17.8 µM (inactive)	1.98 µM (inactive)	16.5 µM (inactive)		8.57 µM (inactive)	1.5 µM (inactive)	20.2 µM (inactive)	2.4 µM	2.19 µM (inactive)	18.6 µM (inactive)	0.659 µM (active)	0.0607 µM (active)	11.5 µM (inactive)	21.4 µM (inactive)	18.5 µM (inactive)	16.6 µM (inactive)	2 µM (inactive)	3.85 µM (inactive)	1.52 µM (inactive)	2.18 µM (inactive)
N=C(/C=C/c1ccc(-c2cn3cc(/C=C/C(=N)N4CCCC4)ccc3n2)cc1)N1CCCC1	> 100 µM (inactive)	61.9 µM (inactive)	68.9 µM (inactive)	> 100 µM (inactive)		> 100 µM (inactive)	> 100 µM (inactive)	> 100 µM	> 100 µM (inactive)	> 100 µM (inactive)	> 100 µM (inactive)	27 µM (inactive)	31 µM (inactive)	79.1 µM (inactive)	> 100 µM (inactive)	50.6 µM (inactive)	> 100 µM (inactive)	> 100 µM (inactive)	78.7 µM (inactive)	60.1 µM (inactive)
C/C=C1/CC(C)C(C)(O)C(=O)OCC2C(O)CN3CCC(OC1=O)C23 (centres undefined)	> 100 µM (inactive)	> 100 µM (inactive)	> 100 µM (inactive)	> 100 µM (inactive)	> 100 µM (inactive)	> 100 µM (inactive)	> 100 µM (inactive)	> 100 µM	> 100 µM (inactive)	> 100 µM (inactive)	> 100 µM (inactive)		68.9 µM (inactive)	> 100 µM (inactive)	> 100 µM (inactive)	> 100 µM (inactive)	> 100 µM (inactive)	> 100 µM (inactive)	> 100 µM (inactive)	
Nc1nc(NCC2(CO)CCC2)cc(=O)[nH]1	> 100 µM (inactive)	> 100 µM (inactive)		> 100 µM (inactive)	> 100 µM (inactive)	> 100 µM (inactive)	> 100 µM (inactive)	> 100 µM	> 100 µM (inactive)	> 100 µM (inactive)	> 100 µM (inactive)	> 100 µM (inactive)	> 100 µM (inactive)	> 100 µM (inactive)	> 100 µM (inactive)	> 100 µM (inactive)	> 100 µM (inactive)	> 100 µM (inactive)	> 100 µM (inactive)	> 100 µM (inactive)
CC1=NN(c2nc(N)nc(CS(C)(=O)=O)n2)C(C)(C)C1	> 100 µM (inactive)		> 100 µM (inactive)	> 100 µM (inactive)	> 100 µM (inactive)	> 100 µM (inactive)	> 100 µM (inactive)	> 100 µM	> 100 µM (inactive)	> 100 µM (inactive)	> 100 µM (inactive)			> 100 µM (inactive)	> 100 µM (inactive)	> 100 µM (inactive)	> 100 µM (inactive)	> 100 µM (inactive)	> 100 µM (inactive)	
NNC(=O)CC(=O)Nc1ccc(S(=O)(=O)c2ccc(NC(=O)CC(=O)NN)cc2)cc1	> 100 µM (inactive)	> 100 µM (inactive)	> 100 µM (inactive)	> 100 µM (inactive)	> 100 µM (inactive)	> 100 µM (inactive)	> 100 µM (inactive)	> 100 µM	> 100 µM (inactive)	> 100 µM (inactive)	> 100 µM (inactive)		> 100 µM (inactive)	> 100 µM (inactive)	> 100 µM (inactive)	> 100 µM (inactive)	> 100 µM (inactive)	> 100 µM (inactive)	> 100 µM (inactive)	> 100 µM (inactive)
Nc1n[n+](CC(=O)c2ccccc2)c2sc(-c3ccccc3)nn12	> 100 µM (inactive)	> 100 µM (inactive)	> 100 µM (inactive)	> 100 µM (inactive)	45.7 µM (inactive)	> 100 µM (inactive)	> 100 µM (inactive)	75.2 µM	> 100 µM (inactive)		27.7 µM (inactive)	> 100 µM (inactive)	95.5 µM (inactive)	78.2 µM (inactive)	73.8 µM (inactive)	> 100 µM (inactive)	64.7 µM (inactive)	36.8 µM (inactive)	> 100 µM (inactive)	> 100 µM (inactive)
N=c1c2c(ncn1N)Oc1c(c(-c3ccccc3)nn1-c1ccccc1)C2c1ccc(Cl)cc1 (centres undefined)	1.86 µM (inactive)	1.82 µM (inactive)	2.04 µM (inactive)	2.1 µM (inactive)	2.47 µM (inactive)	0.508 µM (active)	1.82 µM (inactive)	1.31 µM	1.66 µM (inactive)	1.71 µM (inactive)	1.62 µM (inactive)	1.61 µM (inactive)		1.95 µM (inactive)	1.63 µM (inactive)	1.47 µM (inactive)	1.66 µM (inactive)	1.75 µM (inactive)	1.76 µM (inactive)	1.56 µM (inactive)
C[C@@H]1OC2(O)[C@@H]3CCCN3C(=O)N(Cc3ccccc3)N2C1=O (some centres undefined)	> 100 µM (inactive)	> 100 µM (inactive)	> 100 µM (inactive)	> 100 µM (inactive)	> 100 µM (inactive)	> 100 µM (inactive)	> 100 µM (inactive)	> 100 µM	> 100 µM (inactive)	> 100 µM (inactive)	> 100 µM (inactive)	> 100 µM (inactive)		> 100 µM (inactive)	> 100 µM (inactive)	> 100 µM (inactive)	> 100 µM (inactive)	> 100 µM (inactive)	> 100 µM (inactive)	> 100 µM (inactive)
